Entries after “also recorded” stand apart in the source; their conditions may differ. Where no end group is shown, it is not given here. [ ]: non-standard residue; d: D form.
What was measured:
[1] = test system: Raw macrophage-derived cells; test: Cell proliferation assay (phenol red, LDH content); format: cell-based; details: for Effect on growth of raw macrophage-derived cells: 2.5 μM, 48 hrs, phenol red / LDH content
Method: Use of the exemplary peptide of the invention as a carrier moiety was also examined in a cell proliferation assay. Raw macrophage-derived cells were incubated for 48 hrs with 2.5 μM of the indicated nucleoside analog or the analog as a conjugate with the RYF peptide in the presence of phenol red. Cultures containing dividing cells turn medium clear, while the medium of cultures containing in non-dividing cells remains dark (active compounds). Percentage growth was also determined by measuring the relative content of LDH (FIG. 11B). […] For example, the “ribo” and “tg” (Thioguanine) compounds have no effect at the concentration tested (2.5 μm), but become potently cytotoxic when conjugated to an exemplary peptide transporter of the invention (i.e., RYF).
The Experiment was repeated to investigate the effects of the L- or D-linkage on cytotoxic properties of the BAM moiety. The cells were incubated with 3′ amino β-D-arabinofuranoside either alone or in the form of a conjugate with the RYF peptide. […] However, once the 3′ position is conjugated to a D-entantiomer, it cannot be removed by a protease, and once incorporated into the DNA-strand, it will function to prevent further DNA elongation.
The experiment was repeated with 3′AdT (3′ amino deoxythymidine) and 3′ amino β-D-arabinofuranoside (Ribo). Cells were incubated with each of the compounds alone or as an N-terminally linked conjugate to the RYF peptide via either L-Glu (E) or D-Glu (e). The cells were then incubated for 72 hrs before LDH content was measured.

[2] = test system: leukemia/lymphoma cell lines; test: Cancer cell line screening panel, summary over leukemia/lymphoma lines; format: cell-based, human; details: 6 leukemia/lymphoma cell lines
Method: (§1) The use of peptides of the invention as carrier molecules was investigated in a screening panel of human cancer cell lines. The human tumor cell lines of the cancer screening panel were grown in RPMI 1640 medium containing 5% fetal bovine serum and 2 mM L-glutamine. For a typical screening experiment, cells were inoculated into 96 well microtiter plates in volumes of 100 μL at plating densities ranging from 5,000 to 40,000 cells/well depending on the doubling time of individual cell lines. […] After 24 h, two plates of each cell line were fixed in situ with TCA to provide a measurement of the cell population at the time of drug addition (Tz). The experimental therapeutics were solubilized in dimethyl sulfoxide at 400-fold the desired final maximum test concentration and stored frozen prior to use. […] Bound stain was subsequently solubilized with 10 mM trizma base, and the absorbance was read on an automated plate reader at a wavelength of 515 nm. […] Using the seven absorbance measurements [time zero, (Tz), control growth, (C), and test growth in the presence of compound at the five concentration levels (Ti)], the percentage growth was calculated at each of the compound concentrations levels. Percentage growth inhibition was calculated as: [(Ti−Tz)/(C−Tz)]×100 for concentrations for which Ti≧Tz [(Ti−Tz)/Tz]×100 for concentrations for which Ti<Tz.

[3] = test system: cell lines from other lineages; test: Cancer cell line screening panel, summary over other lineages; format: cell-based, human; details: 54 cell lines from other lineages
Method: as §1

[4] = test system: chondroitin-4-sulfate (C4S); test: Modified ELISA, peptide binding to coated proteoglycans
Method: The binding of the nine-mer peptides of the invention to C4S predicted by the models, in particular, as compared to the binding to other proteoglycans was tested using a modified ELISA protocol. ELISA plates were coated overnight with 1 mg/ml of heparin sulphate (HS), chondroitin-4-sulfate (C4S), chondroitin-6-sulfate (C6S) or hyaluronic acid (HA) in PBS. The wells were then washed with PBS and incubated for 1 hour at room temperature with 1 mg/ml of an exemplary peptide of the invention having the sequence RYFvRIKYRh (“RYF”; SEQ ID NO:2) or a standard TAT peptide. The plates were then thoroughly washed with PBS and subsequently photographed with a LUMASCOPE™ luminescent microscope. Images were then quantified using the ImageJ software (FIG. 4).
The same modified ELISA protocol was used to examine the impact of altering the chirality of the amino acid residues at positions 1, 5, 9 and 3 or 7 on the binding of the peptides to C4S. […] In FIG. 5, an upper case letter indicates an L-enantiomer and a lower case letter indicates a D-enantiomer.

CHO cells = test: FITC-peptide binding to C4S expressing cells, fluorescence microscopy; format: cell-based; design: dose or concentration left out as unconfirmed; details: FITC conjugated peptide, 24 hrs
From the text: (§2) As explained throughout the description, the present molecules are able to selectively bind C4S over other proteoglycans.

Sog9 cells = test: FITC-peptide binding to cells lacking C4S, fluorescence microscopy; format: cell-based; design: dose or concentration left out as unconfirmed; details: FITC conjugated peptide, 24 hrs
From the text: as §2

Macrophages = test: FITC-RYF binding to chlorate pre-treated macrophages; format: cell-based; details: 0, 3, 10 or 30 μM chlorate for 16 hours
Method: The same fluorescent microscopy procedure was used to assess the binding of the FITC-RYF peptide on C4S expressing cells pre-treated with chlorate. Chlorate is an inhibitor of sulfotransferases, and, thus, chlorate treatment decreases or inhibits C4S expression. Macrophages were treated with 0, 3, 10 or 30 μM chlorate for 16 hours prior to washing, incubation with RYF (SEQ ID NO:2) peptide and photography as described above.

Row | Compound | Effect on growth of raw macrophage-derived cells [1] | Activity on cell growth (LDH content) ([1]; 72 hrs, alone or N-terminally linked to RYF via L-Glu (E) or D-Glu (e)) | mean growth [2] | mean growth [3] | Binding to C4S ([4]; ELISA plates coated with 1 mg/ml C4S, 1 mg/ml peptide, 1 hour, room temperature) | Selective binding to C4S over other proteoglycans ([4]; versus heparin sulphate (HS), chondroitin-6-sulfate (C6S), hyaluronic acid (HA)) | Binding to CHO cells expressing C4S (CHO cells) | Binding to Sog9 cells lacking C4S (Sog9 cells) | Binding to macrophages pre-treated with chlorate (Macrophages)
1 | 3′ amino β-D-arabinofuranoside [Ribo] | no effect | inactive | – | – | – | – | – | – | –
2 | Nc1nc2nc[nH]c2c(=S)[nH]1 [tg, Thioguanine] | no effect | – | 44.13 % of untreated | 86.65 % of untreated | – | – | – | – | –
3 | RYFvRIKYRh (RYF[dV]RIKYR[dH]) | – | – | – | – | specifically binds to the C4S proteoglycan | selectively binds C4S over the other proteoglycans tested; also recorded: specifically and selectively binds C4S over other proteoglycans | intense, uniform binding | did not bind; also recorded: failed to bind | binding correlated with chondroytine sulfate expression; also recorded: binding decreased with decreasing C4S expression

Source: patent publication US9688723B2, “C4S proteoglycan specific transporter molecules” (PHI PHARMA SA, priority 2012, dated 2017)
